Test results published in paper PMC10762035, “Molecular basis of human trace amine-associated receptor 1 activation” (Nature Communications, 2024).
Residue numbers refer to the chain shown, from its start. “And” between values parts separate entries of the source, which are not always exact repeats. Equal values may be shown once. Read-outs that look alike come from different tables or passages of the source.

Assays:
Format in all cases: cell-based
hTA1 W264F = molecular target: T1, hTA1 W264F (Homo sapiens, UniProt Q96RJ0, W264F); experiment: GloSensor cAMP accumulation assay, W264F mutant; conditions: W264F;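 further: cells transiently transfected with receptor plus GloSensor, luminescence read 30 min after agonist addition at room temperature, concentration-response curves fitted by log(agonist) vs response regression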
T1 construct: expressed in transfected cells; host or cells: HEK293T
T1 sequence (Q96RJ0 1-339 W264F): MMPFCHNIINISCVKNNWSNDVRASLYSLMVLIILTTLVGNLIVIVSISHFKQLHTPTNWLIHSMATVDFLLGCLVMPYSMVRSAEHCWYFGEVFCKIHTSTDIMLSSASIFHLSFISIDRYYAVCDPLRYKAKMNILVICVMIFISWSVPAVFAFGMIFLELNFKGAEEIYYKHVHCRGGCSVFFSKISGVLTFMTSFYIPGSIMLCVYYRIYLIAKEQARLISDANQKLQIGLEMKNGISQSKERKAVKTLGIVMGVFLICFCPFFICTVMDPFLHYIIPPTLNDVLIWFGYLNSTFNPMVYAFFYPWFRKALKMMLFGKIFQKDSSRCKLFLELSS

hTA1 T271N = molecular target: T2, hTA1 T271N (Homo sapiens, UniProt Q96RJ0, T271N); experiment: GloSensor cAMP accumulation assay, T271N mutant
T2 construct: expressed in transfected cells; host or cells: HEK293T
T2 sequence (Q96RJ0 1-339 T271N): T1 sequence (Q96RJ0 1-339 W264F) with F264W, T271N

hTA1 C88/178S = molecular target: T3, hTA1 C88/178S (Homo sapiens, UniProt Q96RJ0, C178S/C88S); experiment: GloSensor cAMP accumulation assay, C88S/C178S double mutant
T3 construct: expressed in transfected cells; host or cells: HEK293T
T3 sequence (Q96RJ0 1-339 C88S/C178S): T1 sequence (Q96RJ0 1-339 W264F) with C88S, C178S, F264W

hTA1 V184P = molecular target: T4, hTA1 V184P (Homo sapiens, UniProt Q96RJ0, V184P); experiment: GloSensor cAMP accumulation assay, V184P mutant
T4 construct: expressed in transfected cells; host or cells: HEK293T
T4 sequence (Q96RJ0 1-339 V184P): T1 sequence (Q96RJ0 1-339 W264F) with V184P, F264W

Which “ΔpEC50 values (each mutant value - WT average), Mean” value (hTA1 W264F; Asenapine) does the source give for `CN1CC2c3ccccc3Oc3ccc(Cl)cc3C2C1` (centres unmarked) [asenapine] here?
Its value is -2.045 and -2.029.

And the “Emax values, Mean” value (hTA1 W264F; Asenapine, per experiment, 3 replicates)?
The value was 34.2126 and 58.204.

And the EC50 (hTA1 W264F; Asenapine, per experiment, 3 replicates, read-out: pEC50 values Mean (converted))?
The EC50 was 9610 nM and 9250 nM.

What about the EC50 (hTA1 W264F; n=2, read-out: EC50) of the same compound?
Its EC50 is 9430 nM.

What about the Emax (hTA1 W264F; n=2, read-out: Span ± SEM (Emax normalized to β-PEA)) of the same compound?
The Emax was 46.2 ± 12%.

And the “Emax values of Asenapine” value (hTA1 T271N; T271N, Mean of one experiment)?
The value was 142.994 and 100.859.

What about the EC50 (hTA1 T271N; T271N, Mean of one experiment, read-out: pEC50 values of Asenapine (converted)) of the same compound?
The EC50 was 496 nM and 463 nM.

What about the EC50 (hTA1 T271N; T271N, n=2, read-out: EC50) of the same compound?
Its EC50 is 479 nM.

What about the Emax (hTA1 T271N; T271N, n=2, read-out: Span ± SEM (Emax normalized to β-PEA)) of the same compound?
The Emax was 122%.

What about the Emax (hTA1 T271N; T271N, relative to β-PEA, read-out: Emax) of the same compound?
Its Emax is 122%.

What about the “ΔEmax values (each mutant value - WT average), T271N, Mean” value (hTA1 T271N; hTA1 T271N mutant vs WT average, Figure 6B, each line is one experiment (3 replicates)) of the same compound?
The value was 54.2867 and 12.1519.

What about the EC50 (hTA1 C88/178S; C88/178S, n=2, read-out: EC50) of the same compound?
The EC50 was 205 nM.

And the Emax (hTA1 C88/178S; read-out: Span ± SEM (Emax normalized to β-PEA))?
Its Emax is 86.3 ± 8.4%.

And the EC50 (hTA1 V184P; V184P, n=2, read-out: EC50)?
Its EC50 is 168 nM.

What about the Emax (hTA1 V184P; V184P, n=2, read-out: Span ± SEM (Emax normalized to β-PEA)) of the same compound?
The Emax was 88.3 ± 8.11%.

What about the “Emax values, Mean” value (hTA1 V184P; V184S (so in the source), Asenapine, per experiment, 3 replicates) of the same compound?
Its value is 96.3704 and 80.1474.

What about the EC50 (hTA1 V184P; V184S (so in the source), Asenapine, per experiment, 3 replicates, read-out: pEC50 values Mean (converted)) of the same compound?
The EC50 was 246 nM and 114 nM.
